Reference: patent US20070021451A1, “Method for preventing or treating neurologic damage after spinal cord injury” (HAMAMATSU UNIVERSITY SCHOOL OF MEDICINE, priority 2005, published 2007)

System: Rabbit Model of Spinal Cord Ischemia
Test: TUNEL staining of motor neurons (mid lumbar segment)
Type: in vivo, New Zealand White rabbits
Conditions: NS-7 15 minutes before ischemia or at the onset of reperfusion; P<0.05 vs control (FIG. 6)
Protocol: Twenty-six male New Zealand White rabbits weighting 2.2 to 3.0 kg were used in this experiment. Spinal cord ischemia was induced by occluding the abdominal aorta with […] for 20 minutes just distal to the renal arteries. Surgical preparation was conducted according to the method described in the literature, Terada H. et. al., J. Thorac. Cardiovasc. Surg. 2001; 122: 979-85. A 24-gauge venous catheter was placed in the marginal ear vein for drug administration. The rabbits were anesthetized with intravenous sodium pentobarbital (25 mg/kg) and allowed to breathe spontaneously. Lidocaine (0.5%) was administered at the site of the skin incision as local anesthesia. The left common carotid artery was cannulated with a 24-gauge catheter for monitoring the arterial pressure. Core body temperature was continuously monitored with a rectal probe and was maintained at 38.5° C. with the aid of heating lamp. The infrarenal abdominal aorta was exposed through a transperitoneal approach. […] The number of motor neurons that were positive in TUNEL staining was counted in 3 sections, and the values were averaged (Sakurai M., J. Thorac. Cardiovasc. Surg. 2000; 120: 1148-57, Lang-Lazdunski L., J. Vasc. Surg. 2003; 38: 564-75). […]

## Cc1cc(-c2ccc(F)cc2)cc(OCCCCCN2CCCCC2)n1.Cl [NS-7, 4-(4-Fluorophenyl)-2-methyl-6-(5-piperidinopentyloxy)pyridine hydrochloride]
  Total number of apoptotic (TUNEL-positive) motor neurons: strongly reduced
